The values below come from patent US20180092840A1, “ULTRASOUND-ENHANCED DRUG DELIVERY FOR TREATMENT OF ONYCHOMYCOSIS” (The George Washington University, priority 2016, published 2018).

For one data set, the system named is onychomycosis. As to conditions: cited from earlier work; for side effects: onychomycosis treatment.
Data set [1] in a line: diffusion cell test (Franz Diffusion Cell, spectrophotometry) of blue dye through nail with ultrasound. The format is in vitro ADME, pig. As to conditions: 5 min sonication, 60 min total, n=6. The method, then: A second set of experiments was conducted utilizing a diffusion cell system 500, as set forth in FIG. 5 (hereinafter, the “diffusion cell test”). As described more fully below, a diffusion cell 502 having a receiving compartment 504 containing a stir bar 506 were positioned at the bottom of the system 500. A sampling port 508 projected from a side of the receiving compartment 504 to collect liquids contained therein. A nail adapter 510 fitted with a nail 512 was positioned above the diffusion cell 502. A lid adapter 514 was positioned above the nail 512. The lid adapter 514 contained a donor compartment 516, which held the blue dye, as well as a thermocouple 518 and a transducer 520. The parameters of the diffusion cell test were the same as set forth above with respect to Example 1, except in this example, spectrophotometry and a Franz Diffusion Cell were used to measure how much of the blue dye compound permeated all the way through the nail from a donor compartment (filled with the dye) to a receiver compartment, using dilution at different ultrasound parameters.
The diffusion cell (commercially available from PermeGear, Inc., Hellertown, Pa., USA) was fit with a custom-made nail adapter to avoid leakage of dye around the nail and a lid adapter so that 50 mL of dye and the transducer could easily fit above the nail adapter, as illustrated in FIG. 5. The nail adapter was made from plastic that screws together tightly and secures to the diffusion cell using small metal clamps. The lid adapter was made from a plastic beaker and secured onto the top of the nail adapter using epoxy. During the experimentation, the receiver compartment of the diffusion cell was filled with saline solution and a magnetic stirring bar which was spun at 450 RPM to ensure the compartment was fully mixed. The entire diffusion cell was placed in a water bath at 37° C. The donor compartment was then filled with 50 mL of the previously-described blue dye. Before being placed in the donor compartment, the blue dye was maintained at room temperature for at least 20 minutes. The transducer was placed 85 mm from the nail (as opposed to 45 mm from the nail in the luminosity experiment). The nail was then sonicated for five (5) minutes.
After sonication, the diffusion cell experiment continued for another 55 minutes to allow the dye to travel through the entirety of the nail. The Control nails were not treated with any ultrasound and were exposed to the dye solution for 60 minutes. […]
After the completion of the experiment, 2 mL of solution was collected from the receiving compartment of the diffusion cell and its absorption was measured with the spectrophotometer (commercially available as UVmini-1240 from Shimadzu Scientific Instruments of Columbia, Md., USA) using saline as a base. […]

Each structure is given as a SMILES string. Where only a bound is given, the exact number is not on record here.

Turning to `C=C1CCN([C@H](C)[C@](O)(Cn2cncn2)c2ccc(F)cc2F)CC1` [Efinaconazole], the “cure rate compared with Ciclopirox” value in the data set with onychomycosis (topical, applied for up to ten (10) months) is reported as “slightly better cure rate”.

`CN(C/C=C/C#CC(C)(C)C)Cc1cccc2ccccc12` [Terbinafine]: the side effects entry with onychomycosis is “elevated levels of liver enzymes and hepatitis”. In the data set with onychomycosis (orally prescribed), the overall failure rate result was “greater than 30%” and the time to work was above 6 months.

For the compound `CCN(Cc1cccc(S(=O)(=O)[O-])c1)c1ccc(C(=C2C=CC(=[N+](CC)Cc3cccc(S(=O)(=O)[O-])c3)C=C2)c2ccccc2S(=O)(=O)[O-])cc1.[Na+].[Na+]` [blue dye, FD&C Blue No. 1—Brilliant Blue FCF, E133], the “increase in nail permeability vs Control” value amounted to 70.3% in data set [1] (1 MHz), 26.7% in data set [1] (400 kHz), 19.5% in data set [1] (600 kHz) and 44.5% in data set [1] (800 kHz).

With `Cc1cc(C2CCCCC2)n(O)c(=O)c1` [ciclopirox], the cure rate in the data set on onychomycosis (nail polish form, after six (6) months of daily application) is 36%. Also, the side effects result in the data set with onychomycosis was “only non-serious, infrequently reported side effects”.
